Results: US8791132B2, “Compounds and methods for treatment of hypertension” (Medivation Technologies, Inc., priority 2011, dated 2014)
“And” between values parts separate entries of the source, which are not always exact repeats. Equal values may be shown once. Read-outs that look alike come from different tables or passages of the source.

Columns and labels:
[1] = target: T1, human recombinant adrenergic α2B receptor (Homo sapiens, UniProt P18089); assay: Radioligand binding, adrenergic α2B ([3H]Rauwolscine); conditions: for Ki: read-out: Ki α2B
T1 construct: expressed in transfected cells; host or cells: CHO-K1
T1 sequence (P18089 1-450): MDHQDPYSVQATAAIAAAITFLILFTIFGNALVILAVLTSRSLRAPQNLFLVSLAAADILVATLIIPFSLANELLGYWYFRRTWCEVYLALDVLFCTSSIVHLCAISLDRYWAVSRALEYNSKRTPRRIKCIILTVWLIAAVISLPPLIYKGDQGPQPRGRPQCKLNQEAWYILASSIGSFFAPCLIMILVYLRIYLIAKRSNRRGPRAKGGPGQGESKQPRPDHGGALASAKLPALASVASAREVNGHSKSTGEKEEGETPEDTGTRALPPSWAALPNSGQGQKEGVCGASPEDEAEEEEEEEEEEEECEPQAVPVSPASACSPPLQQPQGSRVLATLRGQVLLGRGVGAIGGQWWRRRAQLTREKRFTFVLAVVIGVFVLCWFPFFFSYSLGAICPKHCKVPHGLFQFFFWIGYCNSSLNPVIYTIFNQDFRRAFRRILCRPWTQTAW
How it was run: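 Values are percent inhibition of specific radioligand binding. The receptor, expressed in CHO-K1 cells, was exposed to 2.5 nM [3H]Rauwolscine at 25° C for 60 min, with 10 μM Prazosin marking non-specific binding.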

[2] = target: T2, human recombinant adrenergic α1D receptor (Homo sapiens, UniProt P25100); assay: Radioligand binding, adrenergic α1D ([3H]Prazosin); conditions: [3H]Prazosin
T2 construct: expressed in transfected cells; host or cells: HEK-293
T2 sequence (P25100 1-572): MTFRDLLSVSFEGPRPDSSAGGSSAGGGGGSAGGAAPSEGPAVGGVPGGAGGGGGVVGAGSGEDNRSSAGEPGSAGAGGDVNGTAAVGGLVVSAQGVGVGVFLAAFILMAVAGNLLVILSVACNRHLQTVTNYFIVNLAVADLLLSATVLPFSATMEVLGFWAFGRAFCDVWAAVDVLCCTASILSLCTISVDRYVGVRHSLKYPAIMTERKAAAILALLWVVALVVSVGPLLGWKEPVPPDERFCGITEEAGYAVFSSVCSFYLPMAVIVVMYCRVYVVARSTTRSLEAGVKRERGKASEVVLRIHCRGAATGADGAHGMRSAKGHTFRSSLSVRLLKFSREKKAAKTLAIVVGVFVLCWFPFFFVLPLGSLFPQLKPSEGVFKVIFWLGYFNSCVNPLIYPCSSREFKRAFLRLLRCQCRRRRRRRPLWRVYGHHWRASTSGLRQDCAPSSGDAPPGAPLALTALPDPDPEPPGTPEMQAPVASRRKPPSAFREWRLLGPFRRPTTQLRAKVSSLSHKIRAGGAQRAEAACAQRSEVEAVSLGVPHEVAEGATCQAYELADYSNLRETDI
Procedure: Compounds were incubated with 0.6 nM [3H]Prazosin for 60 min at 25° C. Non-specific binding was estimated in the presence of 10 μM phentolamine. Receptor proteins were filtered and washed, the filters were then counted to determine [3H]Prazosin specifically bound. […] Biochemical assay results are presented as the percent inhibition of specific binding in Table B1.

[3] = target: T3, human recombinant adrenergic α2A receptor (Homo sapiens, UniProt P08913); assay: Radioligand binding, adrenergic α2A ([3H]MK-912); conditions: for Percentage inhibition of ligand binding, Adrenergic α2A / Percentage inhibition of ligand binding, Adrenergic α2A (0.1 μM): 0.1 µM
T3 construct: expressed in transfected cells; host or cells: insect Sf9 cells
T3 sequence (P08913 1-465): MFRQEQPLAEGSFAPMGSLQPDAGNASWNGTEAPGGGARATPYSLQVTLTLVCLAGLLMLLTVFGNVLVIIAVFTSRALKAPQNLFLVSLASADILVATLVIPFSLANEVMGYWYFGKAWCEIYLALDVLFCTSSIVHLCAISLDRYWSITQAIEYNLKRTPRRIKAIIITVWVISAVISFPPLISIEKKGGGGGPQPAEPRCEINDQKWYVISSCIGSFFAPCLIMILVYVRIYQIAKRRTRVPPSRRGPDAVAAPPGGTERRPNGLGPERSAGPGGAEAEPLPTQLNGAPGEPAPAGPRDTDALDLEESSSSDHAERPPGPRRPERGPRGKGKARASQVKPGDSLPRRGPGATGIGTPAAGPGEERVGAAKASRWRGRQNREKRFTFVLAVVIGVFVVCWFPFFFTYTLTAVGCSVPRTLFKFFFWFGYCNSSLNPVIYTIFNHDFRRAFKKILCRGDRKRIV
How it was run: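 Sf9-expressed receptor was incubated with compound for 60 min at 25 °C in modified Tris-HCl buffer, pH 7.4. Nonspecific binding was taken as that remaining with 10 μM WB-4101.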

[4] = read-out: Percentage inhibition of ligand binding, Adrenergic α2B (0.03 μM), compound at 0.03 μM, [3H]Rauwolscine, repeat datapoints each shown
[5] = read-out: Percentage inhibition of ligand binding, Adrenergic α2B (0.1 μM), compound at 0.1 μM, [3H]Rauwolscine, repeat datapoints each shown
[6] = read-out: Percentage inhibition of ligand binding, Adrenergic α1D (0.1 μM), compound at 0.1 μM, repeat datapoints each shown
[7] = read-out: Percentage inhibition of ligand binding, Adrenergic α2A (0.1 μM), compound at 0.1 μM, [3H]MK-912, repeat datapoints each shown
[8] = compound at 0.03 μM, [3H]Rauwolscine, repeat assays, each datapoint shown, 0.03 µM
[9] = compound at 0.1 μM, repeat assays, each datapoint shown, read-out: Percentage inhibition of ligand binding, Adrenergic α1D
[10] = compound at 0.03 μM, [3H]MK-912, repeat assays, each datapoint shown, read-out: Percentage inhibition of ligand binding, Adrenergic α2A
[11] = compound at 0.1 μM, [3H]MK-912, repeat assays, each datapoint shown
[12] = compound at 0.03 μM, [3H]Rauwolscine, repeat assays, each datapoint shown, read-out: Percentage inhibition of ligand binding, Adrenergic α2B
[13] = compound at 0.1 μM, [3H]Rauwolscine, repeat assays, each datapoint shown, read-out: Percentage inhibition of ligand binding, Adrenergic α2B
[14] = compound at 0.1 μM, [3H]MK-912, repeat assays, each datapoint shown, read-out: Percentage inhibition of ligand binding, Adrenergic α2A
[15] = compound at 0.1 μM, [3H]Rauwolscine, repeat assays, each datapoint shown, 0.1 µM
[16] = compound at 0.03 μM, [3H]Rauwolscine, repeat datapoints each shown, 0.03 µM
[17] = compound at 0.1 μM, [3H]MK-912, repeat datapoints each shown

| Percentage inhibition of ligand binding, Adrenergic α2B [1, 8] | Ki [1] | Ki [3] | inhibition at 0.03 µM [3, 10] [%] | Percentage inhibition of ligand binding, Adrenergic α2A [3, 11] | inhibition at 0.03 µM [1, 12] [%] | SMILES | other results |
| --- | --- | --- | --- | --- | --- | --- | --- |
| – | – | – | – | – | – | Cc1ccc(C(O)Cn2c3c(c4cc(C)ccc42)CN(C)CC3)cc1 (racemic) [compound 183, racemic-2-(1,2,3,4-tetrahydro-2,8-dimethylpyrido[4,3-b]indol-5-yl)-1-p-tolylethanol] | inhibition at 0.03 µM [1, 4]: 68%; inhibition at 0.1 µM [1, 5]: 80%; inhibition at 0.1 µM [2, 6]: 36%; inhibition at 0.1 µM [3, 7]: 93% |
| 100% and 101% and 102% and 112% | 0.26 nM and 0.28 nM and 0.46 nM | 139 nM and 166 nM and 222 nM | 1 | 21% and 22% and 23% and 25% | – | Cc1ccc2c(c1)c1c(n2CC(O)c2ccncc2)CCN(C)C1 (single isomer, unassigned) [3b] | inhibition at 0.1 µM [2, 9]: 18% |
| 103% | 0.64 nM | 176 nM | 5 | 24% | 99 | CN1CCc2c(c3cc(Cl)ccc3n2CC(O)c2ccncc2)C1 (single isomer, unassigned) [4a] | inhibition at 0.1 µM [1, 13]: 104%; inhibition at 0.1 µM [3, 14]: 19% |
| 81% and 86% and 90% and 100% | 0.95 nM and 1.06 nM and 4.53 nM | 152 nM and 192 nM and 195 nM | – | 18% and 21% and 22% | – | Cc1ccc2c(c1)c1c(n2CC(C)(O)c2cccnc2)CCN(C)C1 (single isomer, unassigned) [5b, 1-(1,2,3,4-tetrahydro-2,8-dimethylpyrido[4,3-b]indol-5-yl)-2-(pyridin-3-yl)propan-2-ol] | Percentage inhibition of ligand binding, Adrenergic α2B [1, 15]: 82% and 100% and 107%; inhibition at 0.1 µM [2, 9]: 1% |
| 102% | 0.62 nM | 199 nM | – | – | 100 | Cc1ccc2c(c1)c1c(n2CC(O)c2ccncc2)CCN(C)CC1 (single isomer, unassigned) [13b, 2-(3,9-dimethyl-2,3,4,5-tetrahydroazepino[4,5-b]indol-6(1H)-yl)-1-(pyridin-4-yl)ethanol] | – |
| 101% and 107% | 0.56 nM | 113 nM | 14 | 23% and 33% | – | Cc1cnc2c(c1)c1c(n2CC(C)(O)c2cccnc2)CCN2CCCC12 (single isomer, unassigned) [26a] | – |
| 76% and 83% | 4.32 nM | 1100 nM | – | 2% and 11% | – | Cc1ccc2c(c1)c1c(n2CC(N)c2ccncc2)CCN(C)C1 (single isomer, unassigned) [27a, 2-(1,2,3,4-tetrahydro-2,8-dimethylpyrido[4,3-b]indol-5-yl)-1-(pyridin-4-yl)ethanamine] | Percentage inhibition of ligand binding, Adrenergic α2B [1, 15]: 94% |
| – | 2.5 nM | 1660 nM | 5 | 15% | 86 | Cc1ccc2c(c1)c1c(n2CC(O)c2ccncc2)CCNC1 (single isomer, unassigned) [39a, 2-(8-methyl-1,2,3,4-tetrahydro-pyrido[4,3-b]indol-5-yl)-1-pyridin-4-yl-ethanol] | inhibition at 0.1 µM [1, 13]: 92%; inhibition at 0.1 µM [3, 14]: 13% |
| 14% | – | – | – | −9% | – | CN1CCc2c(n(CC(O)c3ccncc3)c3ccc(Cl)cc23)C1 (single isomer, unassigned) [41a] | – |
| – | 1.42 nM | 234 nM | – | 27% | 93 | Cc1cnc2c(c1)c1c(n2CCc2ccc(C)nc2)CCN2CCCC12 (single isomer, unassigned) [74a, 10-methyl-7-(2-(6-methylpyridin-3-yl)ethyl)-2,3,5,6,7,11c-hexahydro-1H-pyrido[3′,2′:4,5]pyrrolo[2,3-g]indolizine] | inhibition at 0.1 µM [1, 13]: 101%; inhibition at 0.03 µM ([2]; compound at 0.03 μM, repeat assays, each datapoint shown, read-out: Percentage inhibition of ligand binding, Adrenergic α1D): 42%; inhibition at 0.1 µM [2, 9]: 61%; inhibition at 0.1 µM [3, 14]: 22% |
| – | 0.35 nM | 1.87 nM | – | – | – | Cc1ccc2c(c1)c1c(n2CC(O)c2ccncc2)CCN2CCCC12 (single isomer, unassigned) [129d] | Percentage inhibition of ligand binding, Adrenergic α2A (0.03 μM) ([3]; compound at 0.03 μM, [3H]MK-912, repeat datapoints each shown, 0.03 µM): 87% |
| – | 1.7 nM and 2.36 nM | – | – | – | – | Cc1ccc2c(c1)c1c(n2CC(O)c2ccc(C(N)=O)nc2)CCN(C)C1 (single isomer, unassigned) [144b, 5-[2-(2,8-dimethyl-1,2,3,4-tetrahydro-pyrido[4,3-b]indol-5-yl)-1-hydroxy-ethyl]-pyridine-2-carboxylic acid amide] | Percentage inhibition of ligand binding, Adrenergic α2B (0.03 μM) [1, 16]: 85% and 87%; Percentage inhibition of ligand binding, Adrenergic α2B (0.1 μM) ([1]; compound at 0.1 μM, [3H]Rauwolscine, repeat datapoints each shown, 0.1 µM): 102%; inhibition at 0.03 µM [1, 4]: 83%; inhibition at 0.1 µM [1, 5]: 100%; Percentage inhibition of ligand binding, Adrenergic α2A (0.1 μM) [3, 17]: 4%; inhibition at 0.1 µM [3, 7]: 3% |
| – | 0.53 nM | – | – | – | – | Cc1ccc2c(c1)c1c(n2CC(C)(O)c2cnccn2)CCN2CCCC12 (single isomer, unassigned) [176a] | Percentage inhibition of ligand binding, Adrenergic α2B (0.03 μM) [1, 16]: 93% and 98% and 100%; inhibition at 0.1 µM [1, 5]: 105%; Percentage inhibition of ligand binding, Adrenergic α2A (0.1 μM) [3, 17]: 32% |
| – | – | – | – | – | – | Cc1cnc2c(c1)c1c(n2CCc2ccc(C)nc2)CCN(C)C1 [II-110, 3,6-dimethyl-9-(2-(6-methylpyridin-3-yl)ethyl)-6,7,8,9-tetrahydro-5H-pyrrolo[2,3-b:4,5-c′]dipyridine] | inhibition at 0.03 µM [1, 4]: 11%; inhibition at 0.1 µM [1, 5]: 47%; inhibition at 0.1 µM [2, 6]: 17%; Percentage inhibition of ligand binding, Adrenergic α2A (0.1 μM) [3, 17]: 2%; inhibition at 0.1 µM [3, 7]: 1% |
| – | 0.64 nM | 0.26 nM | 4 | – | 99 | Cc1ccc2c(c1)c1c(n2CC(O)c2ccncc2)CCN(C)C1 (stereo not drawn) [compound 3] | Percentage inhibition of ligand binding, Adrenergic α2B [1, 15]: 103%; inhibition at 0.1 µM [1, 13]: 100%; inhibition at 0.1 µM [2, 9]: 12% |
